From article PMC9042912, “T cell receptor and IL-2 signaling strength control memory CD8^+ T cell functional fitness via chromatin remodeling” (Nature Communications, 2022)
No end group written: not given here.

Molecular target: T1, H2-K^b (Mus musculus, UniProt P01901)
T1 construct: RMA-S cells were added per well to a 96-well flat-bottom plate and incubated at 30 °C overnight; endogenous in cells; host or cells: RMA-S cells (TAP-deficient), obtained from Dr. Steve Porcelli
T1 sequence (P01901 22-369): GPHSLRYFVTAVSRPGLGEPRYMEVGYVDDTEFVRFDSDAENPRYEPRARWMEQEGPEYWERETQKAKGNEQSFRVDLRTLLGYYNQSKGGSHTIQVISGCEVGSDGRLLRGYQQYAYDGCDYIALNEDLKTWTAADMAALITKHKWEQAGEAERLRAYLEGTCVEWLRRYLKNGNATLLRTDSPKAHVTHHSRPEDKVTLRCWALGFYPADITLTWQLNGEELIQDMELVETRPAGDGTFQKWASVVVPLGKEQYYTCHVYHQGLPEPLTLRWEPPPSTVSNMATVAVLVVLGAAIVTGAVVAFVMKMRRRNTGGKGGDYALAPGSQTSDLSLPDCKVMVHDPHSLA
T1 sequence (P01887 21-119 partner): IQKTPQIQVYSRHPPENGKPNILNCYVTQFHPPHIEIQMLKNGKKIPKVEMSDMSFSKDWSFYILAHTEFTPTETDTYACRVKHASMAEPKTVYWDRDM
Assay: cell-based

Sequence: SIINFEKA [A8]
- Kd: 351 nM
